The text below walks through data of patent publication US11576892B2, “Benzopyran derivatives and uses thereof” (Novation Pharmaceuticals Inc., priority 2015, dated 2023).

Assay [1] concerns IL-6 release from THP 1 cells. As to the kind of experiment: IL-6 release from THP 1 cells measured by ELISA. The class given is cell-based, human. As to conditions: IFNγ/LPS-stimulated THP 1 cells, 24 h. Here is the method:
The THP 1 cell line is generally available and is described by Tsuchia et. al. Tsuchiya, Yamabe et al. (1980). Establishment and characterization of a human acute monocytic leukemia cell line (THP-1). Int J Cancer. 26: 171-176.
900 μl THP 1 cells (0.5×10^6 cells) together with 100 Uγ interferon/0.9 ml RPMI 1640 medium (containing 2 mM L glutamine and 5% heat inactivated fetal calf serum) are pipetted into 24-well culture plates. 100 μl of the compound to be tested are then added. After 3 hours at 37° C. in 5% CO2/95% air, 10 μl lipopolysaccharide (LPS) 500 μg/ml is added and the incubation continued for a further 24 hours. Appropriate controls (with and without stimulus, solvent) are also included. The media are then removed and clarified by centrifugation at 1000 g for 10 min. Samples are stored at […] until the determinations can be made. IL 1β, IL 6 IL-12, and IL-23 assays are determined using commercially available ELISA kits. In these tests, the compounds of the disclosure may inhibit IL-1β, IL-6, IL-12 and IL-23 release at a concentration of about 10 to 50 μM. The compounds are non-toxic based on resazurin measurements as described in Didiot, Hewett et al. (2013). Identification of cardiac glycoside molecules as inhibitors of c-Myc IRES-mediated translation. J Biomol Screen. 18: 407-419.

A further assay relates to IL-6 release from PBMCs. Put plainly: IL-6 release from PBMCs measured by ELISA. The class given is cell-based. The following applies: LPS or PHA stimulated human PBMCs. Here is the method: (§1) Mononuclear cells are obtained from the blood of healthy volunteers via centrifugation and cultivated on tissue culture dishes with the test compound at various concentrations Schnyder, Bollinger et al. (1990). Inhibition of interleukin-1 release by IX 207-887. Agents Actions. 30: 350-362. Fresh human mononuclear cells were isolated on Ficoll-Paque gradient and washed several times. Fresh medium, test compound and LPS (10 μg/ml) or PHA (5 μg/ml) as stimulant are added and the monocytes incubated for a further day. The media are then removed and clarified by centrifugation at 1000×g for 10 min. Samples are stored at […] until the determinations can be made. IFNγ, IL 1β, IL 6, and IL-17 are determined using commercially available ELISA kits.

A further assay has as its system IL-1β release from PBMCs. As to the kind of experiment: IL-1β release from PBMCs measured by ELISA. The class given is cell-based. As to conditions: LPS or PHA stimulated human PBMCs. Here is the method:
as §1

The next assay concerns the target IL-6 mRNA. As to the kind of experiment: mRNA stability reporter gene (luciferase) assay, IL-6. The class given is cell-based. The following applies: luciferase reporter, 24 h; unit printed truncated. As to the method: (§2) The basic principle of a reporter gene assay for determining compounds that destabilize mRNA is described in detail in WO 00/39314. A number of these assays for various drug targets have been developed and were tested with the compounds described in this disclosure. For THP-1 cells, compound is added at the time of the addition of LPS and luciferase measurements are taken 24 hours later or as indicated. For other cell lines, cells were plated in 96 well plates at 5*10^5 cells per 100 ul per well and incubated over night at 37° C. Compounds were then added and luciferase activity was measured after 24 hours. The activity was compared to other mRNA stability assays established for a range of other drug targets and found to be specific for IL-6, IL-12p40 and IL-23p19. Luciferase activity in the IL-6, IL-12 and IL-23 assays was inhibited by 10 μM benzopyran derivatives by >40% (Table IV).

The next assay deals with IL-12 p40 mRNA. Put plainly: mRNA stability reporter gene (luciferase) assay, IL-12 p40. Format: cell-based. As to conditions: 10 μM, 24 h, n.a. = no activity. Here is the method:
as §2

For another assay, the system named is IL-23 p19 mRNA. Put plainly: mRNA stability reporter gene (luciferase) assay, IL-23 p19. Format: cell-based. The following applies: 10 μM, 24 h, n.a. = no activity. Here is the method: as §2
For a further assay, the system named is Htt mRNA. As to the kind of experiment: mRNA stability reporter gene (luciferase) assay, Htt. The following applies: 10 μM, 24 h, n.a. = no activity. The class given is cell-based. Here is the method:
as §2

In another assay the test system is SNCA mRNA. As to the kind of experiment: mRNA stability reporter gene (luciferase) assay, SNCA. Format: cell-based. The following applies: 10 μM, 24 h, n.a. = no activity. As to the method:
as §2

Another assay relates to APP mRNA. As to the kind of experiment: mRNA stability reporter gene (luciferase) assay, APP. The class given is cell-based. As to conditions: 10 μM, 24 h, n.a. = no activity. As to the method: as §2
For another assay, the system named is DNMT1 mRNA. Put plainly: mRNA stability reporter gene (luciferase) assay, DNMT1. Format: cell-based. As to conditions: 10 μM, 24 h, n.a. = no activity. As to the method: as §2

Each structure is given as a SMILES string.

Turning to `COc1cc(O)c2c(c1OC)/C=C/C[C@H](O)[C@H](O)C(=O)/C=C\C[C@H](C)OC2=O` [RAA, radicicol analog A, reference compound], the figures for the “IL-6 release from THP 1 cells, % control” value in assay [1] (10 μM), in assay [1] (40 μM) and in assay [1] (100 μM) were 3 % control, 2 % control and 3 % control, respectively. For the same molecule, the “IL-6 release from PBMCs (% control)” value in the assay on IL-6 release from PBMCs (2.5 μM) was 10 % control; in the assay with IL-6 release from PBMCs (5 μM) it was 9 % control; in the assay with IL-6 release from PBMCs (10 μM) it was 11 % control; in the assay on IL-6 release from PBMCs (20 μM), 11 % control. Besides, the “IL-1β release from PBMCs (% control)” value in the assay on IL-1β release from PBMCs (2.5 μM), with IL-1β release from PBMCs (5 μM), in the assay with IL-1β release from PBMCs (10 μM) and in the assay on IL-1β release from PBMCs (20 μM) was 4 % control in each case. The molecule also displayed an IC50 on IL-6 mRNA of 128 nM. Moreover, the “IL-12 p40 mRNA stability assay (% inhibition)” value in the assay on IL-12 p40 mRNA worked out at 64 % inhibition. Further, the “IL-23 p19 mRNA stability assay (% inhibition)” value in the assay on IL-23 p19 mRNA amounted to 94 % inhibition. Also, the “Htt mRNA stability assay (% inhibition)” value in the assay with Htt mRNA was determined as 35 % inhibition. Besides, the “SNCA mRNA stability assay (% inhibition)” value in the assay with SNCA mRNA was found to be 25 % inhibition. Besides, the “APP mRNA stability assay (% inhibition)” value in the assay with APP mRNA is listed as 5 % inhibition. In addition, the “DNMT1 mRNA stability assay (% inhibition)” value in the assay on DNMT1 mRNA was determined as 19 % inhibition.
